Test results published in paper PMC12298351, “Novel 3,19-(N-Phenyl-3-(4-fluorophenyl)-pyrazole) Acetal of Andrographolide Promotes Cell Cycle Arrest and Apoptosis in MDA-MB-231 Breast Cancer Cells” (Pharmaceuticals, 2025).

What was measured:
UO-31 = settings: UO-31, Renal; for CC50: read-out: 50% lethal concentration (LC50)
SK-MEL-28 = settings: SK-MEL-28, Melanoma; for CC50: read-out: 50% lethal concentration (LC50)
KM12 = settings: KM12, Colon
U251 = settings: U251, CNS
HL-60(TB) = settings: for CC50: read-out: 50% lethal concentration (LC50), Leukemia
RPMI-8226 = settings: RPMI-8226, Leukemia; for CC50: read-out: 50% lethal concentration (LC50)
SNB-75 = settings: SNB-75, CNS; for CC50: read-out: 50% lethal concentration (LC50)
786-0 = settings: 786-0, Renal; for CC50: read-out: 50% lethal concentration (LC50)
TK-10 = assay type: cell-based; settings: TK-10, Renal
T-47D = settings: for GI50 / Total growth inhibition (TGI): Breast; for CC50: read-out: 50% lethal concentration (LC50), Breast
SF-295 = settings: SF-295, CNS; for CC50: read-out: 50% lethal concentration (LC50)
OVCAR-8 = settings: OVCAR-8, Ovarian; for CC50: read-out: 50% lethal concentration (LC50)
SN12C = settings: for GI50 / Total growth inhibition (TGI): Renal; for CC50: read-out: 50% lethal concentration (LC50), Renal
SK-MEL-5 = settings: SK-MEL-5, Melanoma; for CC50: read-out: 50% lethal concentration (LC50)
PC-3 = settings: PC-3, Prostate; for CC50: read-out: 50% lethal concentration (LC50)
SF-268 = settings: SF-268, CNS; for CC50: read-out: 50% lethal concentration (LC50)
COLO 205 = settings: COLO 205, Colon
MCF7 = settings: MCF7, Breast; for CC50: read-out: 50% lethal concentration (LC50)
M14 = assay type: cell-based; settings: M14, Melanoma
[1] = DPPH radical scavenging assay; settings: 25 µM test compound, 0.1 mM DPPH, acetonitrile, 30 min
How it was run: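 Compounds at 25 µM in acetonitrile mixed 1:2 with 0.1 mM DPPH in acetonitrile, kept 30 min in the dark at room temperature. Absorbance read at 517 nm; % scavenging = (Ac − As)/Ac × 100, Ac being DPPH blank. Ascorbic acid positive control.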

SW-620 = settings: SW-620, Colon; for CC50: read-out: 50% lethal concentration (LC50)
MALME-3M = settings: for GI50 / Total growth inhibition (TGI): Melanoma
SF-539 = settings: SF-539, CNS; for CC50: read-out: 50% lethal concentration (LC50)
SNB-19 = assay type: cell-based; settings: SNB-19, CNS
MDA-MB-231 = settings: for GI50: MDA-MB-231, Breast; for Total growth inhibition (TGI) / CC50: MDA-MB-231/ATCC, Breast; for CC50: read-out: 50% lethal concentration (LC50)
K-562 = settings: K-562, Leukemia; for CC50: read-out: 50% lethal concentration (LC50)
MOLT-4 = settings: MOLT-4, Leukemia; for CC50: read-out: 50% lethal concentration (LC50)
HCT-116 = assay type: cell-based; settings: HCT-116, Colon; for CC50: read-out: 50% lethal concentration (LC50)
ACHN = settings: for GI50 / Total growth inhibition (TGI): Renal; for CC50: read-out: 50% lethal concentration (LC50), Renal
[2] = read-out: 50% lethal concentration (LC50)

C=C1CCC2C3(C)COC(c4cn(-c5ccccc5)nc4-c4ccc(Br)cc4)OC3CCC2(C)C1CC=C1C(=O)OCC1O (centres unmarked) [1h]
GI50 (UO-31): 2.07 µM
Total growth inhibition (TGI) (UO-31): 2.52 µM
CC50 (UO-31): 5.34 µM
GI50 (SK-MEL-28): 1.73 µM
Total growth inhibition (TGI) (SK-MEL-28): 3.3 µM
CC50 (SK-MEL-28): 6.3 µM
GI50 (KM12): 1.68 µM
Total growth inhibition (TGI) (KM12): 3.68 µM
GI50 (U251): 2.11 µM
Total growth inhibition (TGI) (U251): 2.89 µM
GI50 (HL-60(TB); Leukemia): 0.67 µM
CC50 (HL-60(TB)): > 100 µM
GI50 (RPMI-8226): 1.28 µM
Total growth inhibition (TGI) (RPMI-8226): > 100 µM
CC50 (RPMI-8226): > 100 µM
GI50 (SNB-75): 1.51 µM
Total growth inhibition (TGI) (SNB-75): 2.91 µM
CC50 (SNB-75): 5.75 µM
GI50 (786-0): 2.07 µM
Total growth inhibition (TGI) (786-0): 4.49 µM
CC50 (786-0): 9.76 µM
GI50 (TK-10): 1.19 µM
GI50 (T-47D): 1.18 µM
Total growth inhibition (TGI) (T-47D): 3.13 µM
CC50 (T-47D): 8.33 µM
GI50 (SF-295): 1.54 µM
Total growth inhibition (TGI) (SF-295): 2.93 µM
CC50 (SF-295): 5.57 µM
GI50 (OVCAR-8): 1.55 µM
Total growth inhibition (TGI) (OVCAR-8): 3.4 µM
CC50 (OVCAR-8): 7.45 µM
GI50 (SN12C): 1.51 µM
Total growth inhibition (TGI) (SN12C): 3.37 µM
CC50 (SN12C): 7.48 µM
GI50 (SK-MEL-5): 1.6 µM
Total growth inhibition (TGI) (SK-MEL-5): 2.96 µM
CC50 (SK-MEL-5): 5.44 µM
GI50 (PC-3): 2.03 µM
CC50 (PC-3): > 100 µM
GI50 (SF-268): 2.11 µM
Total growth inhibition (TGI) (SF-268): 4.68 µM
CC50 (SF-268): 11.5 µM
GI50 (COLO 205): 1.7 µM
Total growth inhibition (TGI) (COLO 205): 3.51 µM
GI50 (MCF7): 1.49 µM
Total growth inhibition (TGI) (MCF7): 4.81 µM
CC50 (MCF7): 72 µM
GI50 (M14): 1.71 µM
Total growth inhibition (TGI) (M14): 3.55 µM
% DPPH radical scavenging activity [1]: 57.51%
Total growth inhibition (TGI) (SW-620): > 100 µM
CC50 (SW-620): > 100 µM
GI50 (MALME-3M): 1.6 µM
Total growth inhibition (TGI) (MALME-3M): 3.11 µM
GI50 (SF-539): 1.76 µM
Total growth inhibition (TGI) (SF-539): 3.18 µM
CC50 (SF-539): 5.73 µM
GI50 (SNB-19): 1.47 µM
GI50 (MDA-MB-231): 1.59 µM
Total growth inhibition (TGI) (MDA-MB-231): 3.14 µM
CC50 (MDA-MB-231): 6.19 µM
GI50 (K-562): 2.07 µM
CC50 (K-562): > 100 µM
GI50 (MOLT-4): 0.61 µM
CC50 (MOLT-4): > 100 µM
GI50 (HCT-116): 0.94 µM
Total growth inhibition (TGI) (HCT-116): 2.48 µM
CC50 (HCT-116): 6.3 µM
GI50 (ACHN): 2.07 µM
Total growth inhibition (TGI) (ACHN): 4.78 µM
CC50 (ACHN): > 100 µM

C=C1CCC2C3(C)COC(c4cn(-c5ccccc5)nc4-c4ccccc4)OC3CCC2(C)C1CC=C1C(=O)OCC1O (centres unmarked) [1a]
GI50 (UO-31): 1.35 µM
Total growth inhibition (TGI) (UO-31): 2.69 µM
CC50 (UO-31): 5.36 µM
GI50 (SK-MEL-28): 1.77 µM
Total growth inhibition (TGI) (SK-MEL-28): 3.38 µM
CC50 (SK-MEL-28): 6.45 µM
GI50 (KM12): 2.06 µM
Total growth inhibition (TGI) (KM12): 4.31 µM
GI50 (U251): 1.84 µM
Total growth inhibition (TGI) (U251): 3.71 µM
CC50 (U251; [2]): 7.48 µM
GI50 (HL-60(TB); Leukemia): 2.32 µM
Total growth inhibition (TGI) (HL-60(TB); Leukemia): 7.4 µM
CC50 (HL-60(TB)): > 100 µM
GI50 (RPMI-8226): 2.02 µM
Total growth inhibition (TGI) (RPMI-8226): 8.62 µM
CC50 (RPMI-8226): > 100 µM
GI50 (SNB-75): 1.36 µM
Total growth inhibition (TGI) (SNB-75): 3.9 µM
CC50 (SNB-75): 26.5 µM
GI50 (786-0): 2.03 µM
Total growth inhibition (TGI) (786-0): 4.47 µM
CC50 (786-0): 9.83 µM
GI50 (TK-10): 1.78 µM
Total growth inhibition (TGI) (TK-10): 3.39 µM
CC50 (TK-10; [2]): 6.46 µM
GI50 (T-47D): 1.42 µM
Total growth inhibition (TGI) (T-47D): 3.47 µM
CC50 (T-47D): 8.47 µM
GI50 (SF-295): 1.64 µM
Total growth inhibition (TGI) (SF-295): 3.05 µM
CC50 (SF-295): 5.67 µM
GI50 (OVCAR-8): 1.81 µM
Total growth inhibition (TGI) (OVCAR-8): 4.02 µM
CC50 (OVCAR-8): > 100 µM
GI50 (SN12C): 1.87 µM
Total growth inhibition (TGI) (SN12C): 3.96 µM
CC50 (SN12C): 8.37 µM
GI50 (SK-MEL-5): 1.4 µM
Total growth inhibition (TGI) (SK-MEL-5): 2.7 µM
CC50 (SK-MEL-5): 5.2 µM
GI50 (PC-3): 1.95 µM
Total growth inhibition (TGI) (PC-3): 4.7 µM
CC50 (PC-3): 66.9 µM
GI50 (SF-268): 3.2 µM
Total growth inhibition (TGI) (SF-268): 20.5 µM
CC50 (SF-268): > 100 µM
GI50 (COLO 205): 2.01 µM
Total growth inhibition (TGI) (COLO 205): 3.57 µM
CC50 (COLO 205; [2]): 6.31 µM
GI50 (MCF7): 2 µM
Total growth inhibition (TGI) (MCF7): 9.09 µM
CC50 (MCF7): > 100 µM
GI50 (M14): 1.81 µM
LC50 (50% lethal concentration) (M14): 7.23 µM
Total growth inhibition (TGI) (M14): 3.62 µM
% DPPH radical scavenging activity [1]: 58.66%
GI50 (SW-620): 1.73 µM
Total growth inhibition (TGI) (SW-620): 3.68 µM
CC50 (SW-620): 7.82 µM
GI50 (MALME-3M): 1.73 µM
Total growth inhibition (TGI) (MALME-3M): 3.18 µM
CC50 (MALME-3M; read-out: 50% lethal concentration (LC50), Melanoma): 5.88 µM
GI50 (SF-539): 1.84 µM
Total growth inhibition (TGI) (SF-539): 3.26 µM
CC50 (SF-539): 5.77 µM
GI50 (SNB-19): 1.85 µM
Total growth inhibition (TGI) (SNB-19): 3.78 µM
CC50 (SNB-19; [2]): 7.73 µM
GI50 (MDA-MB-231): 1.72 µM
Total growth inhibition (TGI) (MDA-MB-231): 3.25 µM
CC50 (MDA-MB-231): 6.15 µM
GI50 (K-562): 2.97 µM
Total growth inhibition (TGI) (K-562): > 100 µM
CC50 (K-562): > 100 µM
GI50 (MOLT-4): 1.97 µM
Total growth inhibition (TGI) (MOLT-4): > 100 µM
CC50 (MOLT-4): > 100 µM
GI50 (HCT-116): 1.61 µM
Total growth inhibition (TGI) (HCT-116): 3.55 µM
CC50 (HCT-116): 7.83 µM
GI50 (ACHN): 1.64 µM
Total growth inhibition (TGI) (ACHN): 3.05 µM
CC50 (ACHN): 5.67 µM
